Agonist activity and ED50 data for ten compounds are collected here from ChEMBL document CHEMBL1123729, “Synthesis and biological activity of partially modified retro-inverso pseudopeptide derivatives of the C-terminal tetrapeptide of gastrin” (J Med Chem, 1987).

Activity calls are given as the source filed them. No cut-off for these calls is given here. Peptide text beside a SMILES is read from it. * marks the point of attachment. Boc = CC(C)(C)OC(=O)*

The test system of experiment [1] is Rattus norvegicus. The experiment is described as follows: Agonistic activity against gastrin induced acid secretion in the anesthetized rats; No agonist activity at doses as high as 3 mg/kg. The experiment is classed as functional, organism-based. Also on record: dose 3 mg/kg.
Experiment [2] concerns Rattus norvegicus. The experiment is described as follows: Effective dose required to inhibit gastrin-induced acid secretion in the in situ perfused rat stomach (anesthetized rat). Type of experiment: functional.
The test system of experiment [3] is Rattus norvegicus. The experiment is described as follows: Agonistic activity against gastrin induced acid secretion in the anesthetized rats at a dose of 3 mg/kg;*=1/4 of the agonistic activity. The experiment is classed as functional, organism-based. Also on record: dose 3 mg/kg. The note with it: filed as partial agonist.
Experiment [4] relates to Rattus norvegicus. The experiment is described as follows: Agonistic activity against gastrin induced acid secretion in the anesthetized rats at a dose of 3 mg/kg; **** indicate full activity of tetragastrin. As to conditions: filed as agonist. Also on record: dose 3 mg/kg. Type of experiment: functional, organism-based.

Take `CCCCOC(=O)CCNC(=O)[C@H](Cc1c[nH]c2ccccc12)NC(=O)[C@@H](CCCC)NC(=O)[C@H](CC(=O)O)NC(=O)NCc1ccccc1`: the Agonist activity result in experiment [1] is “inactive”.

With `CC(C)C[C@H](NC(=O)[C@H](Cc1c[nH]c2ccccc12)NC(=O)OC(C)(C)C)C(=O)N[C@H](CC(=O)O)NC(=O)NCc1ccccc1`, the Agonist activity result in experiment [1] is “inactive”. In addition, the ED50 in experiment [2] came to 0.9 µmol/kg.

Consider `CC(C)C[C@@H](NC(=O)[C@H](CC(=O)O)NC(=O)C(Cc1ccccc1)C(N)=O)NC(=O)[C@@H](Cc1c[nH]c2ccccc12)NC(=O)OC(C)(C)C` (some centres not stated), for which the Agonist activity entry in experiment [3] was “Partial agonist”. The same compound returned an ED50 in experiment [2] of 0.15 µmol/kg.

Compound `CCCCOC(=O)CCNC(=O)[C@H](Cc1c[nH]c2ccccc12)NC(=O)[C@@H](CCCC)NC(=O)[C@H](CC(=O)O)NC(=O)CCc1ccccc1` yielded an ED50 in experiment [2] of 10.4 µmol/kg.

Regarding `CC(C)C[C@H](NC(=O)[C@H](Cc1c[nH]c2ccccc12)NC(=O)OC(C)(C)C)C(=O)N[C@@H](CC(=O)O)C(=O)N[C@@H](Cc1ccccc1)C(N)=O` (Boc-WLDF-NH2), the Agonist activity result in experiment [4] is “Agonist”.

`CCCN(CCC)C(=O)C(CCC(=O)O)NC(=O)c1ccccc1` (configuration not stated) [PROGLUMIDE]: the Agonist activity result in experiment [1] was “inactive”. In experiment [2], this compound had an ED50 of 350 µmol/kg.

For `CCCC[C@@H](NC(=O)[C@H](CC(=O)O)NC(=O)CCc1ccccc1)NC(=O)[C@@H](Cc1c[nH]c2ccccc12)NC(=O)OC(C)(C)C`, the Agonist activity entry in experiment [3] is “Partial agonist”. For the same compound, it took a dose of 2.5 µmol/kg to reach the 50% effect level in experiment [2] (ED50).

Regarding `CC(C)C[C@H](NC(=O)[C@@H](Cc1c[nH]c2ccccc12)NC(=O)OC(C)(C)C)C(=O)N[C@H](CC(=O)O)NC(=O)C(Cc1ccccc1)C(N)=O` (some centres not stated), the Agonist activity entry in experiment [3] was “Partial agonist”. In experiment [2], the ED50 is 0.3 µmol/kg.

Consider `CC(C)C[C@H](NC(=O)[C@@H](Cc1c[nH]c2ccccc12)NC(=O)OC(C)(C)C)C(=O)N[C@H](CC(=O)O)NC(=O)CCc1ccccc1`, for which the Agonist activity entry in experiment [1] was “inactive”. The compound further came in with an ED50 in experiment [2] of 0.15 µmol/kg.

On to `CCCC[C@@H](NC(=O)[C@H](CC(=O)O)NC(=O)NCc1ccccc1)NC(=O)[C@@H](Cc1c[nH]c2ccccc12)NC(=O)OC(C)(C)C`, for which, in experiment [3], the Agonist activity entry is “Partial agonist”. Further, the ED50 in experiment [2] was determined as 1.1 µmol/kg.
